Reference: PubChem BioAssay (NCI)
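Step 1: Grow cells in 96-well plates. Step 2: Expose to compound for 48 hours at 5 concentrations. Step 3: Interpolate endpoints linearly; if unreached, use highest concentration. TGI: total growth inhibition.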

Legend:
Test in all cases: DTP human tumour cell line panel, 48 h
HOP-92 NSCLC = tested on: HOP-92 NSCLC
RXF 393 renal = tested on: RXF 393 renal
DLD-1 colon = tested on: DLD-1 colon
SNB-19 CNS = tested on: SNB-19 CNS
SK-MEL-28 melanoma = tested on: SK-MEL-28 melanoma
LXFL 529 NSCLC = tested on: LXFL 529 NSCLC
A498 renal = tested on: A498 renal
SW-620 colon = tested on: SW-620 colon
HCT-116 colon = tested on: HCT-116 colon
CAKI-1 renal = tested on: CAKI-1 renal
TK-10 renal = tested on: TK-10 renal
SK-MEL-2 melanoma = tested on: SK-MEL-2 melanoma
MDA-N = tested on: MDA-N
NCI-H226 lung = tested on: NCI-H226 lung
SNB-78 CNS = tested on: SNB-78 CNS
HOP-18 NSCLC = tested on: HOP-18 NSCLC
SK-MEL-5 melanoma = tested on: SK-MEL-5 melanoma
MALME-3M melanoma = tested on: MALME-3M melanoma
SF-268 CNS = tested on: SF-268 CNS
LOX IMVI melanoma = tested on: LOX IMVI melanoma
OVCAR-8 ovarian = tested on: OVCAR-8 ovarian
DU-145 prostate = tested on: DU-145 prostate
XF 498 CNS = tested on: XF 498 CNS
SF-295 CNS = tested on: SF-295 CNS
UO-31 renal = tested on: UO-31 renal
SF-539 CNS = tested on: SF-539 CNS
MOLT-4 leukemia = tested on: MOLT-4 leukemia
HCC-2998 colon = tested on: HCC-2998 colon
OVCAR-4 ovarian = tested on: OVCAR-4 ovarian
OVCAR-5 ovarian = tested on: OVCAR-5 ovarian
SNB-75 CNS = tested on: SNB-75 CNS
NCI-H522 lung = tested on: NCI-H522 lung
BT-549 breast = tested on: BT-549 breast
M19-MEL melanoma = tested on: M19-MEL melanoma
OVCAR-3 ovarian = tested on: OVCAR-3 ovarian
CCRF-CEM leukemia = tested on: CCRF-CEM leukemia
RPMI-8226 leukemia = tested on: RPMI-8226 leukemia
SN12C renal = tested on: SN12C renal
U251 CNS = tested on: U251 CNS
COLO 205 colon = tested on: COLO 205 colon
T-47D breast = tested on: T-47D breast
UACC-62 melanoma = tested on: UACC-62 melanoma
K-562 leukemia = tested on: K-562 leukemia
MCF7 breast = tested on: MCF7 breast
UACC-257 melanoma = tested on: UACC-257 melanoma
ACHN renal = tested on: ACHN renal
DMS 273 small cell lung = tested on: DMS 273 small cell lung
KM12 colon = tested on: KM12 colon
A549 NSCLC = tested on: A549 NSCLC
PC-3 prostate = tested on: PC-3 prostate
HL-60(TB) leukemia = tested on: HL-60(TB) leukemia
DMS 114 small cell lung = tested on: DMS 114 small cell lung
SR leukemia = tested on: SR leukemia
M14 melanoma = tested on: M14 melanoma
NCI-H23 lung = tested on: NCI-H23 lung
EKVX NSCLC = tested on: EKVX NSCLC
NCI-H460 lung = tested on: NCI-H460 lung
786-0 renal = tested on: 786-0 renal
MDA-MB-231 breast = tested on: MDA-MB-231 breast
MDA-MB-435 = tested on: MDA-MB-435
HT29 colon = tested on: HT29 colon
NCI/ADR-RES ovarian = tested on: NCI/ADR-RES ovarian
HS 578T breast = tested on: HS 578T breast
SK-OV-3 ovarian = tested on: SK-OV-3 ovarian
IGROV1 ovarian = tested on: IGROV1 ovarian
HCT-15 colon = tested on: HCT-15 colon

Compound: Cn1c(Cl)cn2c3nc4ccccc4nc3c(=O)c(C#N)c12
- TGI (HOP-92 NSCLC): > 100 µM
- TGI (RXF 393 renal): > 100 µM
- TGI (DLD-1 colon): > 100 µM
- TGI (SNB-19 CNS): > 100 µM
- TGI (SK-MEL-28 melanoma): > 100 µM
- TGI (LXFL 529 NSCLC): > 100 µM
- TGI (A498 renal): 98.8 µM
- TGI (SW-620 colon): > 100 µM
- TGI (HCT-116 colon): > 100 µM
- TGI (CAKI-1 renal): > 100 µM
- TGI (TK-10 renal): > 100 µM
- TGI (SK-MEL-2 melanoma): > 100 µM
- TGI (MDA-N): > 100 µM
- TGI (NCI-H226 lung): > 100 µM
- TGI (SNB-78 CNS): > 100 µM
- TGI (HOP-18 NSCLC): > 100 µM
- TGI (SK-MEL-5 melanoma): > 100 µM
- TGI (MALME-3M melanoma): > 100 µM
- TGI (SF-268 CNS): > 100 µM
- TGI (LOX IMVI melanoma): > 100 µM
- TGI (OVCAR-8 ovarian): > 100 µM
- TGI (DU-145 prostate): > 100 µM
- TGI (XF 498 CNS): > 100 µM
- TGI (SF-295 CNS): > 100 µM
- TGI (UO-31 renal): > 100 µM
- TGI (SF-539 CNS): > 100 µM
- TGI (MOLT-4 leukemia): > 100 µM
- TGI (HCC-2998 colon): > 67.8 µM
- TGI (OVCAR-4 ovarian): > 100 µM
- TGI (OVCAR-5 ovarian): > 100 µM
- TGI (SNB-75 CNS): > 81.5 µM
- TGI (NCI-H522 lung): > 100 µM
- TGI (BT-549 breast): > 100 µM
- TGI (M19-MEL melanoma): > 100 µM
- TGI (OVCAR-3 ovarian): > 100 µM
- TGI (CCRF-CEM leukemia): > 100 µM
- TGI (RPMI-8226 leukemia): > 100 µM
- TGI (SN12C renal): > 100 µM
- TGI (U251 CNS): > 100 µM
- TGI (COLO 205 colon): > 100 µM
- TGI (T-47D breast): > 100 µM
- TGI (UACC-62 melanoma): > 100 µM
- TGI (K-562 leukemia): > 100 µM
- TGI (MCF7 breast): > 100 µM
- TGI (UACC-257 melanoma): > 100 µM
- TGI (ACHN renal): > 100 µM
- TGI (DMS 273 small cell lung): > 100 µM
- TGI (KM12 colon): > 100 µM
- TGI (A549 NSCLC): > 100 µM
- TGI (PC-3 prostate): > 100 µM
- TGI (HL-60(TB) leukemia): > 100 µM
- TGI (DMS 114 small cell lung): > 100 µM
- TGI (SR leukemia): > 100 µM
- TGI (M14 melanoma): > 100 µM
- TGI (NCI-H23 lung): > 100 µM
- TGI (EKVX NSCLC): > 100 µM
- TGI (NCI-H460 lung): > 100 µM
- TGI (786-0 renal): > 100 µM
- TGI (MDA-MB-231 breast): > 100 µM
- TGI (MDA-MB-435): > 100 µM
- TGI (HT29 colon): > 100 µM
- TGI (NCI/ADR-RES ovarian): > 100 µM
- TGI (HS 578T breast): > 100 µM
- TGI (SK-OV-3 ovarian): > 100 µM
- TGI (IGROV1 ovarian): > 100 µM
- TGI (HCT-15 colon): > 100 µM
